Experimental data taken from patent US11084783B2, “O-alkyl-benzylideneguanidine derivatives and therapeutic use for the treatment of disorders associated with an accumulation of misfolded proteins” (INFLECTIS BIOSCIENCE, priority 2014, dated 2021).

How the values were obtained:
[1] = tested on: rotenone injured primary mesencephalic rat neurons; test: In vitro Parkinson's disease model: rotenone injured primary mesencephalic rat neurons; format: cell-based; settings: rotenone 10 nM, 24 hours; total number of TH positive neurons
Protocol: Rat dopaminergic neurons were cultured as described by Schinelli et al., (1988 J. Neurochem 50 pp1900-07) and Visanji et al., (2008 FASEB J. 22(7) pp2488-97). Briefly, the midbrains obtained from 15-day old rat embryos (Janvier Labs, France) were dissected under a microscope. The embryonic midbrains were removed and placed in ice-cold medium of Leibovitz (L15, Pan Biotech, Batch: 9310614) containing 2% of Penicillin-Streptomycin (PS, Pan Biotech, Batch: 1451013) and 1% of bovine serum albumin (BSA, Pan Biotech, Batch: h140603). The ventral portion of the mesencephalic flexure, a region of the developing brain rich in dopaminergic neurons, was used for the cell preparations.
The midbrains were dissociated by trypsinisation for 20 min at 37° C. (Trypsin 0.05% EDTA 0.02%, PanBiotech, Batch: 5890314). The reaction was stopped by the addition of Dulbecco's modified Eagle's medium (DMEM, PanBiotech, Batch: 1300714) containing DNAase I grade II (0.1 mg/ml, PanBiotech, Batch: H140508) and 10% of foetal calf serum (FCS, Gibco, Batch: 41Q7218K). Cells were then mechanically dissociated by 3 passages through a 10 ml pipette. Cells were then centrifuged at 180×g for 10 min at +4° C. on a layer of BSA (3.5%) in L15 medium. The supernatant was discarded and the cell pellets were re-suspended in a defined culture medium consisting of Neurobasal (Invitrogen, Batch: 1636133) supplemented with B27 (2%, Invitrogen, Batch: 1660670), L-glutamine (2 mM, PanBiotech, Batch: 8150713) and 2% of PS solution and 10 ng/ml of Brain-derived neurotrophic factor (BDNF, PanBiotech, Batch: H140108) and 1 ng/ml of Glial-Derived Neurotrophic Factor (GDNF, Pan Biotech, Batch: H130917). Viable cells were counted in a Neubauer cytometer using the trypan blue exclusion test. The cells were seeded at a density of 40 000 cells/well in 96 well-plates pre-coated with poly-L-lysine (Corning Biocoat, Batch: 6614022) and maintained in a humidified incubator at 37° C. in 5% CO2/95% air atmosphere. Half of the medium was changed every 2 days with fresh medium.
On day 6 of culture, the medium was removed and fresh medium was added, without or with rotenone (Sigma, Batch: 021M2227V) at 10 nM diluted in control medium, 3 wells per condition were assessed. […]
The immunolabeled cultures were automatically examined with ImageXpress (Molecular device USA). For each condition, 20 automatically fields per well (representing ˜80% of the total surface of the well) from 3 wells were analyzed. The total number of TH neurons was automatically analyzed using Custom module editor (Molecular Devices, USA). […] All values were expressed as mean +/−SEM (s.e. mean) of the 1 culture (n=3 wells per condition per culture).

[2] = tested on: mouse embryonic fibroblasts lipofected with poly I:C; test: In vitro inflammation/infection model: poly I:C induced mouse embryonic fibroblasts; format: cell-based; settings: 25 μM, 6h, IFN-beta ELISA in culture supernatants
Protocol: Mouse Embryonic Fibroblasts (MEFs) were lipofected with poly I:C and treated with […] compounds of the invention (25 μM) for 6h. After 6h of culture, elF2alpha-phosphorylation (elF2a-P) and PPP1R15A (GADD34) expression was monitored by western blotting, while type-1 Interferon(IFN)-beta production was quantified in culture supernatants by ELISA. Control (nt) and poly I:C/DMSO are respectively negative and positive controls. Poly I:C (polyinosinic:polycytidylic acid or polyinosinic-polycytidylic acid sodium salt) is an immunostimulant used to simulate viral infections. Poly I:C which is structurally similar to double-stranded RNA, is known to interact with toll-like receptor 3 which is expressed in the intracellular compartments of B-cells and dendritic cells. Guanabenz (25 μM) was used as reference inhibitory compound.
MEFs were cultured in DMEM, 10% FCS (HyClone, Perbio), 100 units/ml penicillin, 100 μg/ml streptomycin, 2 mM glutamine, 1× MEM non-essential amino acids and 50 μM 2-mercaptoethanol. MEFS were treated for the indicated time with 10 μg/ml poly I:C (InvivoGen) in combination with lipofectamine 2000 (Invitrogen).
Cells were lysed in 1% Triton X-100, 50 mM Hepes, 10 mM NaCl, 2.5 mM MgCl2, 2 mM EDTA, 10% glycerol, supplemented with Complete Mini Protease Inhibitor Cocktail Tablets (Roche). Protein quantification was performed using the BCA Protein Assay (Pierce). 25-50 μg of Triton X-100-soluble material was loaded on 2%-12% gradient or 8% SDS-PAGE before immunoblotting and chemi-luminescence detection (SuperSignal West Pico Chemi-luminescent Substrate, Pierce). Rabbit polyclonal antibodies recognizing GADD34 (C-19) were from Santa Cruz Biotechnology and anti-elF2alpha[pS^52] were from Invitrogen.
IFN-beta quantification in culture supernatant was performed using the Mouse Interferon Beta ELISA kit (PBL Interferon Source) according to manufacturer instructions.
Normal response of MEFs to poly I:C is characterized by PPP1R15A expression, increase in elF2alpha-P (variable in time and related to the levels PPP1R15A expression) mediated by PKR activation and type-I IFN production (range 500 to 700 pg/ml). Knock out PPP1R15A MEFs are unable to produce this cytokine in response to poly I:C.
The potency of compounds of the invention to inhibit PPP1R15A was evaluated by measuring the increase of elF2alpha phosphorylation, the decrease of PPP1R15A expression due to its own pharmacological inhibition resulting in general protein synthesis inhibition and type-I IFN production.

| Compound | protection of rotenone injured primary mesencephalic rat neurons (FIG. 3) [1] | prevention of type-I IFN production (FIG. 9) [2] |
| --- | --- | --- |
| CCONC(=N)N/N=C/c1c(F)cccc1Cl [Compound 17, 2-(2-chloro-6-fluorobenzylidene)-N-ethoxyhydrazinecarboximidamide] | dose dependent protection | prevent type-I IFN production |
| CCO/N=C(\N)N/N=C/c1ccccc1Cl [Compound 10, 2-(2-chlorobenzylidene)-N′-ethoxyhydrazinecarboximidamide] | – | prevent type-I IFN production |
| CCONC(=N)N/N=C/c1c(Cl)cccc1Cl [Compound 11, 2-(2,6-dichlorobenzylidene)-N-ethoxyhydrazinecarboximidamide] | dose dependent protection | prevent type-I IFN production |
| CCCONC(=N)N/N=C/c1ccccc1Cl [Compound 12, 2-(2-chlorobenzylidene)-N-propoxyhydrazinecarboximidamide] | dose dependent protection | prevent type-I IFN production |
